PubChem BioAssay AID1918998 (Molecular Pharmacology Branch, DTP, NCI, 2023)

Test system: 521955-158-R2-J5-PDC complex spheroid growth
Test: Anticancer human tumor 521955-158-R2-J5-PDC patient-derived pancreatic carcinoma cell line growth inhibition [AhR]
Settings: for IC50: curve of first compound; for viability, T/C: stronger effect = lower value
Procedure, shortened: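 Agents were dosed in half-log steps down from roughly clinical Cmax, or from 10 microM where Cmax was unknown, alone and with AhR antagonists. Read-out: percent test/control growth of tumor spheroids containing HUVEC and MSC stromal cells.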

[1] = second compound 0.1 µM, first compound 0.000949 µM
[2] = second compound 0.1 µM, first compound 0.003 µM
[3] = second compound 0.1 µM, first compound 0.00949 µM
[4] = second compound 0.1 µM, first compound 0.03 µM
[5] = second compound 0.1 µM, first compound 0.0949 µM
[6] = second compound 0.1 µM, first compound 0.3 µM
[7] = second compound 0.316 µM, first compound 0.000949 µM
[8] = second compound 0.316 µM, first compound 0.003 µM
[9] = second compound 0.316 µM, first compound 0.00949 µM
[10] = second compound 0.316 µM, first compound 0.03 µM
[11] = second compound 0.316 µM, first compound 0.0949 µM
[12] = second compound 0.316 µM, first compound 0.3 µM
[13] = second compound 1 µM, first compound 0.000949 µM
[14] = second compound 1 µM, first compound 0.003 µM
[15] = second compound 1 µM, first compound 0.00949 µM
[16] = second compound 1 µM, first compound 0.03 µM
[17] = second compound 1 µM, first compound 0.0949 µM
[18] = second compound 1 µM, first compound 0.3 µM
[19] = second compound 3.16 µM, first compound 0.000949 µM
[20] = second compound 3.16 µM, first compound 0.003 µM
[21] = second compound 3.16 µM, first compound 0.00949 µM
[22] = second compound 3.16 µM, first compound 0.03 µM
[23] = second compound 3.16 µM, first compound 0.0949 µM
[24] = second compound 3.16 µM, first compound 0.3 µM
[25] = second compound 10 µM, first compound 0.000949 µM
[26] = second compound 10 µM, first compound 0.003 µM
[27] = second compound 10 µM, first compound 0.00949 µM
[28] = second compound 10 µM, first compound 0.03 µM
[29] = second compound 10 µM, first compound 0.0949 µM
[30] = second compound 10 µM, first compound 0.3 µM
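Throughout, for viability, T/C: spheroids mix tumor cells with HUVEC endothelium and human MSC stroma; luminescence taken as viability surrogate after a week of drug exposure.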

**Q.** Which results are given for `CC(C)CC(NC(=O)C(Cc1ccccc1)NC(=O)c1cnccn1)B(O)O` (stereo not given) + Cc1ccccc1N=Nc1ccc(NC(=O)c2ccnn2C)c(C)c1?
**A.** IC50 (second compound 0.1 µM): 0.0161 µM; IC50 (second compound 0.316 µM): 0.0163 µM; IC50 (second compound 1 µM): 0.0173 µM; IC50 (second compound 3.16 µM): 0.0151 µM; IC50 (second compound 10 µM): 0.00876 µM; viability, T/C [1]: 91.3%; viability, T/C [2]: 77.6%; viability, T/C [3]: 105%; viability, T/C [4]: 0.49%; viability, T/C [5]: 0.24%; viability, T/C [6]: 1.83%; viability, T/C [7]: 95.3%; viability, T/C [8]: 89.4%; viability, T/C [9]: 97.4%; viability, T/C [10]: 0.67%; viability, T/C [11]: 0.36%; viability, T/C [12]: 0.41%; viability, T/C [13]: 127%; viability, T/C [14]: 99.8%; viability, T/C [15]: 101%; viability, T/C [16]: 2.56%; viability, T/C [17]: 2.56%; viability, T/C [18]: 0.41%; viability, T/C [19]: 146%; viability, T/C [20]: 119%; viability, T/C [21]: 82.3%; viability, T/C [22]: 1.3%; viability, T/C [23]: 0.26%; viability, T/C [24]: 0.34%; viability, T/C [25]: 142%; viability, T/C [26]: 153%; viability, T/C [27]: 42.7%; viability, T/C [28]: 1.3%; viability, T/C [29]: 3.29%; viability, T/C [30]: 0.52%

**Q.** Which IC50 (second compound 0.1 µM) does the source give for `CCc1c2c(nc3ccc(O)cc13)-c1cc3c(c(=O)n1C2)COC(=O)[C@]3(O)CC` + Cc1ccccc1N=Nc1ccc(NC(=O)c2ccnn2C)c(C)c1 here?
**A.** The IC50 was 0.00412 µM.

**Q.** What about the IC50 (second compound 0.316 µM) of the same molecule?
**A.** Its IC50 is 0.0048 µM.

**Q.** What about the IC50 (second compound 1 µM) of the same molecule?
**A.** Its IC50 is 0.00466 µM.

**Q.** What about the IC50 (second compound 3.16 µM) of the same molecule?
**A.** The IC50 was 0.0064 µM.

**Q.** What about the IC50 (second compound 10 µM) of the same molecule?
**A.** Its IC50 is 0.0071 µM.

**Q.** What about the viability, T/C [1] of the same molecule?
**A.** Its viability, T/C is 65.2%.

**Q.** What about the viability, T/C [2] of the same molecule?
**A.** Its viability, T/C is 56%.

**Q.** And the viability, T/C [3]?
**A.** Its viability, T/C is 36.5%.

**Q.** And the viability, T/C [4]?
**A.** The viability, T/C was 27%.

**Q.** What about the viability, T/C [5] of the same molecule?
**A.** Its viability, T/C is 18.6%.

**Q.** And the viability, T/C [6]?
**A.** Its viability, T/C is 13.8%.

**Q.** And the viability, T/C [7]?
**A.** Its viability, T/C is 74.3%.

**Q.** What about the viability, T/C [8] of the same molecule?
**A.** Its viability, T/C is 60.9%.

**Q.** And the viability, T/C [9]?
**A.** Its viability, T/C is 34.1%.

**Q.** And the viability, T/C [10]?
**A.** The viability, T/C was 22.3%.

**Q.** What about the viability, T/C [11] of the same molecule?
**A.** The viability, T/C was 17%.

**Q.** What about the viability, T/C [12] of the same molecule?
**A.** Its viability, T/C is 12.9%.

**Q.** And the viability, T/C [13]?
**A.** The viability, T/C was 91.7%.

**Q.** What about the viability, T/C [14] of the same molecule?
**A.** Its viability, T/C is 61.8%.

**Q.** And the viability, T/C [15]?
**A.** The viability, T/C was 30.2%.

**Q.** And the viability, T/C [16]?
**A.** Its viability, T/C is 23.2%.

**Q.** And the viability, T/C [17]?
**A.** Its viability, T/C is 17.5%.

**Q.** What about the viability, T/C [18] of the same molecule?
**A.** Its viability, T/C is 14.3%.

**Q.** And the viability, T/C [19]?
**A.** Its viability, T/C is 95.3%.

**Q.** And the viability, T/C [20]?
**A.** Its viability, T/C is 78.3%.

**Q.** And the viability, T/C [21]?
**A.** Its viability, T/C is 33.9%.

**Q.** What about the viability, T/C [22] of the same molecule?
**A.** Its viability, T/C is 23.5%.

**Q.** What about the viability, T/C [23] of the same molecule?
**A.** Its viability, T/C is 15.3%.

**Q.** And the viability, T/C [24]?
**A.** The viability, T/C was 11.7%.

**Q.** What about the viability, T/C [25] of the same molecule?
**A.** The viability, T/C was 114%.

**Q.** What about the viability, T/C [26] of the same molecule?
**A.** The viability, T/C was 89.8%.

**Q.** What about the viability, T/C [27] of the same molecule?
**A.** The viability, T/C was 35.1%.

**Q.** And the viability, T/C [28]?
**A.** The viability, T/C was 24.1%.

**Q.** What about the viability, T/C [29] of the same molecule?
**A.** Its viability, T/C is 16.2%.

**Q.** And the viability, T/C [30]?
**A.** Its viability, T/C is 11.5%.

**Q.** For `Nc1ccccc1NC(=O)c1ccc(CNC(=O)OCc2cccnc2)cc1` + Cc1ccccc1N=Nc1ccc(NC(=O)c2ccnn2C)c(C)c1, which IC50 (second compound 0.1 µM) is on record?
**A.** The IC50 was 5.03 µM.

**Q.** What about the IC50 (second compound 0.316 µM) of the same molecule?
**A.** The IC50 was 5.29 µM.

**Q.** What about the IC50 (second compound 1 µM) of the same molecule?
**A.** Its IC50 is 5.68 µM.

**Q.** What about the IC50 (second compound 3.16 µM) of the same molecule?
**A.** Its IC50 is 6.93 µM.

**Q.** And the IC50 (second compound 10 µM)?
**A.** Its IC50 is 7.2 µM.

**Q.** And the viability, T/C (second compound 0.1 µM, first compound 0.0316 µM)?
**A.** The viability, T/C was 121%.

**Q.** And the viability, T/C (second compound 0.1 µM, first compound 0.1 µM)?
**A.** The viability, T/C was 129%.

**Q.** And the viability, T/C (second compound 0.1 µM, first compound 0.316 µM)?
**A.** Its viability, T/C is 130%.

**Q.** What about the viability, T/C (second compound 0.1 µM, first compound 1 µM) of the same molecule?
**A.** The viability, T/C was 104%.

**Q.** And the viability, T/C (second compound 0.1 µM, first compound 3.16 µM)?
**A.** Its viability, T/C is 64.6%.

**Q.** What about the viability, T/C (second compound 0.1 µM, first compound 10 µM) of the same molecule?
**A.** Its viability, T/C is 29.6%.

**Q.** And the viability, T/C (second compound 0.316 µM, first compound 0.0316 µM)?
**A.** Its viability, T/C is 95.2%.

**Q.** What about the viability, T/C (second compound 0.316 µM, first compound 0.1 µM) of the same molecule?
**A.** The viability, T/C was 137%.

**Q.** And the viability, T/C (second compound 0.316 µM, first compound 0.316 µM)?
**A.** The viability, T/C was 147%.

**Q.** What about the viability, T/C (second compound 0.316 µM, first compound 1 µM) of the same molecule?
**A.** Its viability, T/C is 109%.

**Q.** And the viability, T/C (second compound 0.316 µM, first compound 3.16 µM)?
**A.** Its viability, T/C is 69.8%.

**Q.** What about the viability, T/C (second compound 0.316 µM, first compound 10 µM) of the same molecule?
**A.** The viability, T/C was 26.4%.

**Q.** And the viability, T/C (second compound 1 µM, first compound 0.0316 µM)?
**A.** Its viability, T/C is 135%.

**Q.** And the viability, T/C (second compound 1 µM, first compound 0.1 µM)?
**A.** Its viability, T/C is 154%.

**Q.** What about the viability, T/C (second compound 1 µM, first compound 0.316 µM) of the same molecule?
**A.** The viability, T/C was 155%.

**Q.** What about the viability, T/C (second compound 1 µM, first compound 1 µM) of the same molecule?
**A.** Its viability, T/C is 116%.

**Q.** And the viability, T/C (second compound 1 µM, first compound 3.16 µM)?
**A.** Its viability, T/C is 67.5%.

**Q.** And the viability, T/C (second compound 1 µM, first compound 10 µM)?
**A.** The viability, T/C was 34.4%.

**Q.** And the viability, T/C (second compound 3.16 µM, first compound 0.0316 µM)?
**A.** The viability, T/C was 141%.

**Q.** And the viability, T/C (second compound 3.16 µM, first compound 0.1 µM)?
**A.** The viability, T/C was 164%.

**Q.** What about the viability, T/C (second compound 3.16 µM, first compound 0.316 µM) of the same molecule?
**A.** Its viability, T/C is 154%.

**Q.** And the viability, T/C (second compound 3.16 µM, first compound 1 µM)?
**A.** The viability, T/C was 131%.

**Q.** What about the viability, T/C (second compound 3.16 µM, first compound 3.16 µM) of the same molecule?
**A.** The viability, T/C was 71.4%.

**Q.** And the viability, T/C (second compound 3.16 µM, first compound 10 µM)?
**A.** Its viability, T/C is 40%.

**Q.** What about the viability, T/C (second compound 10 µM, first compound 0.0316 µM) of the same molecule?
**A.** The viability, T/C was 165%.

**Q.** What about the viability, T/C (second compound 10 µM, first compound 0.1 µM) of the same molecule?
**A.** Its viability, T/C is 168%.

**Q.** And the viability, T/C (second compound 10 µM, first compound 0.316 µM)?
**A.** The viability, T/C was 152%.

**Q.** And the viability, T/C (second compound 10 µM, first compound 1 µM)?
**A.** The viability, T/C was 129%.

**Q.** What about the viability, T/C (second compound 10 µM, first compound 3.16 µM) of the same molecule?
**A.** The viability, T/C was 78.1%.

**Q.** And the viability, T/C (second compound 10 µM, first compound 10 µM)?
**A.** Its viability, T/C is 38.7%.
